# In patent publication US20060069132A1, “Azolecarboxamide herbicides” (priority 2004, published 2006):
# Where two headings read alike, the source gives them in different places.
# Columns and labels:
# [1] = test system: morningglory; experiment: Test A pre-/postemergence herbicide test; type: in vivo, Ipomoea spp.
# Procedure, shortened: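 Seeds sown in sandy loam received a preemergence directed soil spray of compound in non-phytotoxic solvent with surfactant; postemergence plants (2–10 cm, one- to two-leaf stage) were sprayed to runoff at the same time. After ~10 days in greenhouse, injury was rated visually versus untreated controls (0 = no effect, 100 = complete control).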
# [2] = test system: rice; experiment: Test B pre-/postemergence herbicide test; type: in vivo, Oryza sativa; conditions: for plant injury at 500 g/ha / plant injury at 125 g/ha: Oryza sativa, pre-emergence, 336 h
# Procedure, shortened: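 Seeds were planted and treated preemergence with compounds formulated in a non-phytotoxic solvent mixture containing surfactant, while plants at the 1- to 4-leaf stage (2 to 18 cm) received postemergence sprays. Flooded paddy plants were grown to the 2-leaf stage. After 13 to 15 days in a greenhouse, injury was visually rated 0–100 against untreated controls.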
# [3] = test system: goosegrass; experiment: Test C pre-/postemergence herbicide test; type: in vivo, Eleusine indica; conditions: for Plant response rating (0 = no effect, 100 = complete control), Goosegrass / Plant response rating, Goosegrass / pest or weed control at 62 g/ha: preemergence; for Goosegrass plant response rating: Preemergence, scale 0 to 100, 0 no effect, 100 complete control
# Procedure, shortened: (§1)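 Seeds were planted and sprayed preemergence with test chemicals in a non-phytotoxic solvent mixture containing surfactant; postemergence treatments went onto plants 2 to 18 cm tall (1- to 4-leaf stage). After 12 to 14 days in a greenhouse, injury was rated visually against untreated controls on a 0–100 scale.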
# [4] = test system: eastern black nightshade; experiment: Test C pre-/postemergence herbicide test; type: in vivo, Solanum ptycanthum; conditions: for Plant response rating (0 = no effect, 100 = complete control), Nightshade / Plant response rating, Nightshade / pest or weed control at 62 g/ha: preemergence; for Nightshade plant response rating: Preemergence, scale 0 to 100, 0 no effect, 100 complete control
# Procedure, shortened: as §1
# [5] = test system: yellow nutsedge; experiment: Test C pre-/postemergence herbicide test; type: in vivo, Cyperus esculentus; conditions: for Plant response rating (0 = no effect, 100 = complete control), Nutsedge, Yellow / Plant response rating, Nutsedge, Yellow / pest or weed control at 62 g/ha: preemergence; for Nutsedge, Yellow plant response rating: Preemergence, scale 0 to 100, 0 no effect, 100 complete control
# Procedure, shortened: as §1
# [6] = test system: soybean; experiment: Test C pre-/postemergence herbicide test; type: in vivo, Glycine max; conditions: for Plant response rating (0 = no effect, 100 = complete control), Soybean / Plant response rating, Soybean / plant injury at 62 g/ha: preemergence; for Soybean plant response rating: Preemergence, scale 0 to 100, 0 no effect, 100 complete control
# Procedure, shortened: as §1
# [7] = test system: rice; experiment: Test C flooded paddy test; type: in vivo, Oryza sativa
# Procedure, shortened: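 Plants were grown to the 1- to 4-leaf stage (2–18 cm) and then treated postemergence, or grown to the 2-leaf stage for the flooded paddy test. They were held in a greenhouse for 12 to 14 days and then scored by eye against controls, where 0 is no effect and 100 is complete control.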
# [8] = test system: smallflower umbrella sedge; experiment: Test C flooded paddy test; type: in vivo, Cyperus difformis
# [9] = Postemergence, 500 g ai/ha, 0 to 100 scale, 0 no effect, 100 complete control
# [10] = Postemergence, 2000 g ai/ha, 0 to 100 scale, 0 no effect, 100 complete control
# [11] = Preemergence, 500 g ai/ha, visual rating, 0 to 100 scale (0 no effect, 100 complete control)
# [12] = preemergence, 125 g ai/ha, 0 to 100 scale, 0 is no effect, 100 is complete control
# [13] = 125 g ai/ha, scale 0 (no effect) to 100 (complete control), visual, 12 to 14 days
# [14] = 250 g ai/ha, scale 0 to 100 (0 no effect, 100 complete control), visual, 12 to 14 days
# [15] = Preemergence, 2000 g ai/ha, visual rating, 0 to 100 scale (0 no effect, 100 complete control)
# [16] = 62 g ai/ha, scale 0 to 100 (0 no effect, 100 complete control)
# [17] = 125 g ai/ha, scale 0 to 100 (0 no effect, 100 complete control)
# [18] = 250 g ai/ha, scale of 0 to 100, 0 is no effect, 100 is complete control
# [19] = 500 g ai/ha, visual rating after 12 to 14 days, scale 0 to 100 (0 no effect, 100 complete control)
# [20] = 500 g ai/ha, visual rating 0-100, 0 no effect, 100 complete control, preemergence
# [21] = Eleusine indica, pre-emergence, 312 h, 62 g ai/ha, scale 0 to 100, read-out: Plant response rating, Goosegrass
# [22] = Eleusine indica, pre-emergence, 312 h, 125 g ai/ha, scale 0 (no effect) to 100 (complete control), visual, 12 to 14 days, read-out: Plant response rating, Goosegrass
# [23] = pre-emergence, 62 g ai/ha, scale 0 to 100, read-out: Plant response rating, Nightshade
# [24] = pre-emergence, 125 g ai/ha, scale 0 (no effect) to 100 (complete control), visual, 12 to 14 days, read-out: Plant response rating, Nightshade
# [25] = Cyperus, pre-emergence, 62 g ai/ha, scale 0 to 100, read-out: Plant response rating, Nutsedge, Yellow
# [26] = Cyperus, pre-emergence, 125 g ai/ha, scale 0 (no effect) to 100 (complete control), visual, 12 to 14 days, read-out: Plant response rating, Nutsedge, Yellow
# [27] = Glycine max, pre-emergence, 62 g ai/ha, scale 0 to 100, read-out: Plant response rating, Soybean
Compound,"Plant response rating, Morningglory [1, 10]","Morningglory plant response rating [1, 11]","Plant response rating, Rice [2, 12]","Plant response rating (0 = no effect, 100 = complete control), Goosegrass ([3]; 62 g ai/ha)","Plant response rating, Goosegrass [3, 13]",Goosegrass plant response rating ([3]; 500 g ai/ha),"Plant response rating (0 = no effect, 100 = complete control), Nightshade ([4]; 62 g ai/ha)","Plant response rating, Nightshade [4, 13]",Nightshade plant response rating ([4]; 500 g ai/ha),"Plant response rating (0 = no effect, 100 = complete control), Nutsedge, Yellow ([5]; 62 g ai/ha)","Plant response rating, Nutsedge, Yellow [5, 13]","Nutsedge, Yellow plant response rating ([5]; 500 g ai/ha)","Plant response rating (0 = no effect, 100 = complete control), Soybean ([6]; 62 g ai/ha)","Plant response rating, Soybean [6, 13]",Soybean plant response rating ([6]; 500 g ai/ha),"Morningglory plant response rating [1, 9]","Morningglory plant response rating [1, 15]","Plant response rating, Rice [2, 20]","pest or weed control at 62 g/ha [3, 21] [%]","pest or weed control at 125 g/ha [3, 22] [%]",further results
CCn1nc(C(C)(C)C)cc1C(=O)Nc1cccc(C(=O)NCC(C)C)c1 [Compound 61],20,20,0,0,40,95,0,20,90,0,0,30,0,0,10,,,,,,"Plant response rating, Morningglory [1, 9]: 10; Morningglory plant response rating ([1]; Preemergence, 2000 g ai/ha, 0 to 100 scale, 0 no effect, 100 complete control): 50; Plant response rating, Goosegrass [3, 14]: 70; Plant response rating, Nightshade [4, 14]: 40; Plant response rating, Nutsedge, Yellow [5, 14]: 10; Plant response rating, Soybean [6, 14]: 0"
CC(=O)c1cccc(NC(=O)c2cc(C(C)(C)C)nn2CCF)c1 [Compound 128],15,45,,80,90,,90,90,,,70,,20,20,,10,85,,,,"Plant response rating, Nutsedge, Yellow ([5]; 16 g ai/ha, scale 0 to 100, last section of Table C): 10; Plant response rating, Nutsedge, Yellow ([5]; 31 g ai/ha, scale 0 to 100, last section of Table C): 70; Rice plant response rating [7, 16]: 25; Rice plant response rating [7, 17]: 40; Rice plant response rating [7, 18]: 70; Plant response rating, Rice [7, 19]: 70; Sedge, Umbrella plant response rating [8, 16]: 80; Sedge, Umbrella plant response rating [8, 17]: 90; Sedge, Umbrella plant response rating [8, 18]: 95; Plant response rating, Sedge, Umbrella [8, 19]: 95"
CCCCOc1cccc(NC(=O)c2cc(C(C)(C)C)nn2CC)c1 [Compound 137],40,20,,40,85,100,60,85,90,0,0,0,0,0,10,25,35,10,,,
CCN(CC)C(=O)c1ccnc(NC(=O)c2cc(C(C)(C)C)nn2CC)c1 [Compound 153],85,10,10,,75,95,,100,100,,0,45,,0,15,35,55,20,,,"Plant response rating, Goosegrass ([3]; 62 g ai/ha, scale 0 to 100): 55; Plant response rating, Nightshade ([4]; 62 g ai/ha, scale 0 to 100): 90; Plant response rating, Nutsedge, Yellow ([5]; 62 g ai/ha, scale 0 to 100): 0; Plant response rating, Soybean ([6]; 62 g ai/ha, scale 0 to 100): 0"
"CCn1nc(C(C)(C)C)cc1C(=O)Nc1cc(C(=O)N(C)C)ccn1 [Compound 156, 2-[[[3-(1,1-dimethylethyl)-1-ethyl-1H-pyrazol-5-yl]carbonyl]amino]-N,N-dimethyl-4-pyridinecarboxamide]",,,,,,95,,,100,,,85,,,100,,,,83,90,"plant injury at 500 g/ha ([2]; 500 g ai/ha, visual rating 0-100, 0 no effect, 100 complete control, read-out: Plant response rating, Rice): 100%; plant injury at 125 g/ha ([2]; preemergence, 125 g ai/ha, 0 to 100 scale, 0 is no effect, 100 is complete control, read-out: Plant response rating, Rice): 90%; pest or weed control at 62 g/ha [4, 23]: 75%; pest or weed control at 125 g/ha [4, 24]: 93%; pest or weed control at 62 g/ha [5, 25]: 35%; pest or weed control at 125 g/ha [5, 26]: 60%; plant injury at 62 g/ha [6, 27]: 33%; plant injury at 125 g/ha ([6]; Glycine max, pre-emergence, 125 g ai/ha, scale 0 (no effect) to 100 (complete control), visual, 12 to 14 days, read-out: Plant response rating, Soybean): 50%"
"CCNC(=O)c1cccc(NC(=O)c2nn(C(C)(C)C)cc2Br)c1 [Compound 221, 4-bromo-1-(1,1-dimethylethyl)-N-[3-[(ethylamino)carbonyl]phenyl]-1H-pyrazole-3-carboxamide]",,,,,,,,,,,,,,,,,,,0,0,"plant injury at 125 g/ha ([2]; 125 g ai/ha, 0 = no effect, 100 = complete control, read-out: Rice plant response rating (0 to 100 scale)): 0%; plant injury at 500 g/ha ([2]; 500 g ai/ha, visual rating, 0 = no effect, 100 = complete control, read-out: Plant response rating, Rice): 20%; pest or weed control at 250 g/ha ([3]; Eleusine indica, pre-emergence, 312 h, 250 g ai/ha, scale 0-100, read-out: Plant response rating, Goosegrass): 0%; pest or weed control at 500 g/ha ([3]; Eleusine indica, pre-emergence, 312 h, 500 g ai/ha, scale 0 to 100 (0 no effect, 100 complete control), visual, 12 to 14 days, read-out: Plant response rating, Goosegrass): 50%; pest or weed control at 62 g/ha [4, 23]: 30%; pest or weed control at 125 g/ha [4, 24]: 50%; pest or weed control at 250 g/ha ([4]; pre-emergence, 250 g ai/ha, scale 0-100, read-out: Plant response rating, Nightshade): 70%; pest or weed control at 500 g/ha ([4]; pre-emergence, 500 g ai/ha, scale 0 to 100 (0 no effect, 100 complete control), visual, 12 to 14 days, read-out: Plant response rating, Nightshade): 100%; pest or weed control at 62 g/ha [5, 25]: 0%; pest or weed control at 125 g/ha [5, 26]: 0%; pest or weed control at 250 g/ha ([5]; Cyperus, pre-emergence, 250 g ai/ha, scale 0-100, read-out: Plant response rating, Nutsedge, Yellow): 0%; pest or weed control at 500 g/ha ([5]; Cyperus, pre-emergence, 500 g ai/ha, scale 0 to 100 (0 no effect, 100 complete control), visual, 12 to 14 days, read-out: Plant response rating, Nutsedge, Yellow): 0%; plant injury at 62 g/ha [6, 27]: 0%; plant injury at 250 g/ha ([6]; Glycine max, pre-emergence, 250 g ai/ha, scale 0-100, read-out: Plant response rating, Soybean): 0%; plant injury at 500 g/ha ([6]; Glycine max, pre-emergence, 500 g ai/ha, scale 0 to 100 (0 no effect, 100 complete control), visual, 12 to 14 days, read-out: Plant response rating, Soybean): 20%"
